Experimental data as given in patent US20250236789A1, “SECOND NEAR-INFRARED ORGANIC FLUORESCENT PROBE, PREPARATION METHOD AND USE THEREOF” (INNER MONGOLIA UNIVERSITY, priority 2024, published 2025).

Columns and labels:
[1] = NIR-II fluorescence imaging of aqueous solutions in PE tubes under excitation of white light; format: physicochemical; conditions: aqueous solution, 10 μmol·L^−1
Description: Using NIR-II small animal imager, the PE tubes filled with the same concentration of nano-imaging probes were imaged at a test concentration of 10 μmol·L^−1.

[2] = Emission spectrum test in aqueous solution under excitation of white light; format: physicochemical; conditions: 10 μmol·L^−1, white light excitation
Experimental: (3) Emission spectrum test of fluorescent probe coated nanoparticles: The emission spectra of HY6CT-NPs, FY6CT-NPs and CY6CT-NPs in aqueous solution were tested with steady-state transient fluorescence spectrometer, at a test concentration of 10 μmol·L^−1.

For `CC1(C)C(/C=C/C=C/C=C/C=C2\N(CCCCS(=O)(=O)[O-])c3ccc4ccccc4c3C2(C)C)=[N+](CCCCS(=O)(=O)[O-])c2ccc3ccccc3c21.[Na+]` [ICG], the “NIR-II fluorescence signal under excitation of white light (in words)” value [1] was “could not detect fluorescence signals” and the “emission spectrum under white light (in words)” value [2] was “can hardly be detected”.
